Key:
[1] = biological target: T1, ABCB1/MDR1/Pgp (Homo sapiens, UniProt P08183); assay: in vitro; settings: for Effect on ABCB1-dependent CaAM extrusion (in words): PLB-985/ABCB1 cells, test compounds 0.2–50 µM; for IC50 at 40 min: human
Procedure: (§1) For the ABC transporter assays, we used both cell-based and membrane-based functional assays. […] The respective transport activities were assayed by measuring the cellular fluorescence of the respective transported substrates Phengreen (ABCG2) and Calcein (ABCB1 and ABCC1).
(§2) The cells were kept on ice until the flow cytometry measurements. All experiments were performed in triplicate and in at least three biological parallels.
(§3) The cells were kept on ice until the flow cytometry measurements. All experiments were performed in triplicate and in at least three biological parallels. […] The PhenGreen (PG) or Calcein signal was detected in the BL1 channel (emission filter: 530/30 nm). Analysis of the data was carried out by the Attune Nxt Cytometer Software v3.1.2 (Thermo Fischer Scientific, Waltham, MA, USA). The inhibition of transporter activity was calculated by comparing the fluorescence in the presence of the test compound to that in the presence of a specific inhibitor providing maximum inhibition. […] Half-maximum inhibition (IC50) values were calculated by using the Origin2019 software (9.6.5.169, OriginLab Corporation, Northampton, MA, USA). […] In these experiments, we measured Hoechst dye extrusion in HeLa cells stably expressing eGFP and the ABCG2 variants driven by the same promoter—the transgenic cells generated by the Sleeping Beauty transposon system. […] For details, see Zámbó et al.). […] The maximum inhibition was defined for each variant as the fluorescence difference of the samples incubated with and without Ko143, respectively. […] Data analysis was performed using the Attune Nxt Cytometer Software v3.1.2. Two samples per condition and three biological replicates were examined in each experiment.
ABCB1 is a high-affinity active efflux transporter of the viability dye Calcein-AM (CaAM). […] Here, we applied this widely used cellular assay (see https://www.solvobiotech.com/services/categories/dye-efflux-assays) to characterize drug interactions of the applied compounds in intact PLB-985 cells, expressing high levels of the ABCB1 protein.

[2] = biological target: T2, ABCG2/BCRP (Homo sapiens, UniProt Q9UNQ0); assay: in vitro; settings: for IC50 at 40 min: human; for Effect on ABCG2-dependent PG-DA extrusion (in words): PLB-985/ABCG2 cells
T2 sequence (Q9UNQ0 1-655): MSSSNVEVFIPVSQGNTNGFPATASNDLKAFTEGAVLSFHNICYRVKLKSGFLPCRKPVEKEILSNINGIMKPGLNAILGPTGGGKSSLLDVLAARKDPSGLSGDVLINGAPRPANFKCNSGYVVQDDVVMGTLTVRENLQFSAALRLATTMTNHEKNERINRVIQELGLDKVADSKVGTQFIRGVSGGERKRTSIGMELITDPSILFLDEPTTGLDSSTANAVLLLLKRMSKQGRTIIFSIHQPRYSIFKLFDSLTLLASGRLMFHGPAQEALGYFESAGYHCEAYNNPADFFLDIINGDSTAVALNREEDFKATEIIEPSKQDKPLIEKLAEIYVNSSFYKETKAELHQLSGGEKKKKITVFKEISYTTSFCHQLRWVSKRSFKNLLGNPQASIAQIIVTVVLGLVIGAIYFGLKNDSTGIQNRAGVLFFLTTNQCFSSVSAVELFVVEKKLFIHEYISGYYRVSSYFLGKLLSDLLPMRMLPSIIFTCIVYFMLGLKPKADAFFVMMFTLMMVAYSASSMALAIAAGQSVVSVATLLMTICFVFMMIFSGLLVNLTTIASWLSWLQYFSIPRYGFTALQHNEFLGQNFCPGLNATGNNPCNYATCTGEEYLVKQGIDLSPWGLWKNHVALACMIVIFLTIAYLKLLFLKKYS
Procedure: as §1, §3
Here, we used both PhenGreen-SK diacetate and Hst dye for these measurements. The PhenGreen (PG) assay is a recently patented method applied for ensuring an efficient ABCG2 transport measurement, as the non-fluorescent PhenGreen diacetate (PG-DA) is actively extruded by ABCG2 and the cellular fluorescence is correlated with ABCG2 transport activity. Therefore, we applied this assay to characterize the test drug interactions in intact PLB-985 cells expressing high levels of the ABCG2 protein. […] ABCG2 inhibition by the test compounds was estimated by their relative (%) inhibition compared to full inhibition by Ko143.

[3] = biological target: T3, ABCC1/MRP1 (Homo sapiens, UniProt P33527); assay: in vitro; settings: for Effect on ABCC1-dependent CaAM extrusion (in words): HL60/ABCC1 cells; for IC50 at 40 min: human
Procedure: as §1, §2, §3
Therefore, we applied this assay to characterize the test drug interactions in intact HL60 cells expressing high levels of the ABCC1 protein.

[4] = biological target: T3, ABCC1/MRP1; settings: Sf9/ABCC1 membrane vesicles
[5] = biological target: T2, ABCG2/BCRP; assay: biochemical; settings: for IC50 at 10 min: human
Procedure: These were employed at 37 °C for 10 min (ABCG2), 1 min (ABCB1), or 3 min (ABCC1), with or without 4 mM Mg-ATP, in a 50 μL final volume. The known reference inhibitors of the transporters (1 µM Ko143 for ABCG2, 1 µM Valspodar for ABCB1, and 200 µM Benzbromarone for ABCC1) served as controls. Each test compound was dissolved in DMSO and a 1 µL volume was added to the samples. After incubation, the samples were filtered and washed, and the substrates in the vesicles were dissolved in 10% SDS and transferred onto another plate. After the addition of a stabilizer, the fluorescence was measured in plate readers (Victor X3 and Enspire Perkin-Elmer, Waltham, MA, USA), while the activity of the radiolabeled substrate was measured by liquid scintillation counting (Perkin Elmer MicroBeta2 liquid scintillation counter, Perkin Elmer, Waltham, MA, USA). ABC transporter-related vesicular transport was calculated by subtracting uptake measured in the presence of Mg-AMP from the values measured in the presence of Mg-ATP.
The effects of the test compounds on ABCG2 activity were also measured in a vesicular transport assay by using inverted membrane vesicles prepared from HEK-293 cells expressing high levels of the ABCG2 transporter.

[6] = biological target: T1, ABCB1/MDR1/Pgp; assay: in vitro

T3 sequence (P33527 whole entry): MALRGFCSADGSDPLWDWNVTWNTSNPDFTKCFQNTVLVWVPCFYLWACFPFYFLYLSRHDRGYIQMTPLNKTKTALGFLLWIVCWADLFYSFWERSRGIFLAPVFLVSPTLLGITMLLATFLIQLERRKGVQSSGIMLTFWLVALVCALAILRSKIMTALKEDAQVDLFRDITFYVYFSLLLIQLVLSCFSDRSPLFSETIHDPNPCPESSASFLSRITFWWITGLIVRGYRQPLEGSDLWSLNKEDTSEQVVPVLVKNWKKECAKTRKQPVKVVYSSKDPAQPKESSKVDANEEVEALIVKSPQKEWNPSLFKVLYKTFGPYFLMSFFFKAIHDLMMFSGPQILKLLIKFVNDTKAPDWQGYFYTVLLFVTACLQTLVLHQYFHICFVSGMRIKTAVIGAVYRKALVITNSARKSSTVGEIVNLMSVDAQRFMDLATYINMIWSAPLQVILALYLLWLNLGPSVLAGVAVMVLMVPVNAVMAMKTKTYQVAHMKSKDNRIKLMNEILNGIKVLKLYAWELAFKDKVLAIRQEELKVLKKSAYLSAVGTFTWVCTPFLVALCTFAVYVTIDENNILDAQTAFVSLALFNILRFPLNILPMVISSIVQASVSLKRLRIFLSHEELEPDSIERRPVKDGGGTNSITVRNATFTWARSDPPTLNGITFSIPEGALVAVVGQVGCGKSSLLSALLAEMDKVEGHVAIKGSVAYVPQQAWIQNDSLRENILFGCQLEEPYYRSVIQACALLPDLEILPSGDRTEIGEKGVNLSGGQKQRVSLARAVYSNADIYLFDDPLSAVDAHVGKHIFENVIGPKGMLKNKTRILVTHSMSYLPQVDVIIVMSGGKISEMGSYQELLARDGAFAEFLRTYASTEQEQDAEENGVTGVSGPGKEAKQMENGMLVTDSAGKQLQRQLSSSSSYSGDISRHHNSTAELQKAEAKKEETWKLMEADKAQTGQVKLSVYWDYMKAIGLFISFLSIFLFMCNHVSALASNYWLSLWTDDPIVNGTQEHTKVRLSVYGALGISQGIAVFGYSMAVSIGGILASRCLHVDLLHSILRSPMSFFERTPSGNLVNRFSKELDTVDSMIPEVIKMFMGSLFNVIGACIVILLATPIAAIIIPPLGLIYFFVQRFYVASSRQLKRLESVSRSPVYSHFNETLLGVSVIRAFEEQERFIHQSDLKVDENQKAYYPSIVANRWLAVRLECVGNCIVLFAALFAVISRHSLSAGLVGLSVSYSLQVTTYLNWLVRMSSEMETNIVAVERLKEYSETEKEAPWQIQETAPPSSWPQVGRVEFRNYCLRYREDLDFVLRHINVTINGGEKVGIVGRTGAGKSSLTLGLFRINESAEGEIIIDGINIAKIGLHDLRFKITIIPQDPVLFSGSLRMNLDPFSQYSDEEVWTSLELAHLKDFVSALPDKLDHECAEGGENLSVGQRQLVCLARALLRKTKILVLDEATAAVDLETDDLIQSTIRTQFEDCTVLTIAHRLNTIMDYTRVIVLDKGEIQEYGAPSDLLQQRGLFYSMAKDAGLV
T1 sequence (P08183 whole entry): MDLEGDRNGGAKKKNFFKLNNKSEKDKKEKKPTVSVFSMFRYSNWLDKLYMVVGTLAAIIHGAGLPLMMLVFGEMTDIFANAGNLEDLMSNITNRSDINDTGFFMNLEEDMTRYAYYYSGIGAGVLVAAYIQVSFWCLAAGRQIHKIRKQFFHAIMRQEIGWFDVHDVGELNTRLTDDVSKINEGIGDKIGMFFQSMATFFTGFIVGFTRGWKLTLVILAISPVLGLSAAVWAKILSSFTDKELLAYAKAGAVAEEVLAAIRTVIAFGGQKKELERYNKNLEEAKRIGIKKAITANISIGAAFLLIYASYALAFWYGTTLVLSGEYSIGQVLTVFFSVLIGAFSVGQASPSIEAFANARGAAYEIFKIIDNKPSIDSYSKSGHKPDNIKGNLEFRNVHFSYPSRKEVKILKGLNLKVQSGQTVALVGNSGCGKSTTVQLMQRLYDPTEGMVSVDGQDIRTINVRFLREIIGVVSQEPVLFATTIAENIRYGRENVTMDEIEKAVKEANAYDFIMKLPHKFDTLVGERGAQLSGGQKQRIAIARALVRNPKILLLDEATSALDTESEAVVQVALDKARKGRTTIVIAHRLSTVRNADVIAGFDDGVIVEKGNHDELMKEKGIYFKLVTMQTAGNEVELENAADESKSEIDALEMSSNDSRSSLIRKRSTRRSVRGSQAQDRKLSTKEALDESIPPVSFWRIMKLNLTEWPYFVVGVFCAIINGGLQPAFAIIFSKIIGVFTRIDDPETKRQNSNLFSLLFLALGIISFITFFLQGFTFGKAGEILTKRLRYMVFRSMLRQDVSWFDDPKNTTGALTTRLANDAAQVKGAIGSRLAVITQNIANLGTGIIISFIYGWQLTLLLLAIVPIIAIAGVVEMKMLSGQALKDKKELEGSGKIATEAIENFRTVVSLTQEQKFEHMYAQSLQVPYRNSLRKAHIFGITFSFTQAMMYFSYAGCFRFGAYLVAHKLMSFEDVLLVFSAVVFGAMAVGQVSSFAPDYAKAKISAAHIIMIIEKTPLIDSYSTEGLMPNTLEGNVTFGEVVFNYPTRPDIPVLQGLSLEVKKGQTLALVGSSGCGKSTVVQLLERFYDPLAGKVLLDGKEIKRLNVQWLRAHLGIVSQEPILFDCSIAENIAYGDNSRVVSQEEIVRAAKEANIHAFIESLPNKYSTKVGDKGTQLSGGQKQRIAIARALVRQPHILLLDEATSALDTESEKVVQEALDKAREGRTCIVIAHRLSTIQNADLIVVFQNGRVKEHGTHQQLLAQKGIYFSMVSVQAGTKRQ

Structure (SMILES)	Effect on ABCB1-dependent CaAM extrusion (in words) [1]	IC50 at 40 min [1] [µM]	IC50 at 40 min [2] [µM]	Effect on ABCC1-dependent CaAM extrusion (in words) [3]	Concentration above which ABCC1 vesicular ETGB transport was stimulated [4]	Effect on ABCC1 vesicular ETGB transport (in words) [4]	IC50 [5] [µM]	IC50 at 10 min [5] [µM]	Effect on ABCG2-dependent PG-DA extrusion (in words) [2]	IC50 at 1 min ([6]; Estimated Transporter Inhibition IC50, ABCB1 vesicular assay, ATP-dependent NMQ uptake, HEK-293/ABCB1 inverted membrane vesicles, '-' = no inhibition) [µM]	IC50 at 40 min [3] [µM]	Effect on ABCG2 ATP-dependent LY uptake (in words) ([5]; HEK-293/ABCG2 membrane vesicles)	IC50 at 40 min ([1]; intact PLB-985 cells expressing ABCB1, probe Calcein-AM, 0.25 µM) [µM]	IC50 at 40 min ([2]; intact PLB-985 cells expressing ABCG2, probe PhenGreen-SK diacetate, 0.25 µM) [µM]	IC50 at 1 min ([6]; probe 3H-N-methyl-quinidine (NMQ), 1 µM) [µM]	IC50 at 40 min ([3]; intact HL60 cells expressing ABCC1, probe Calcein-AM, 0.25 µM) [µM]	IC50 at 10 min ([5]; probe lucifer yellow, 5 µM) [µM]
CCC(CC)COC(=O)[C@H](C)N[P@](=O)(OC[C@H]1O[C@@](C#N)(c2ccc3c(N)ncnn23)[C@H](O)[C@@H]1O)Oc1ccccc1 [remdesivir]	did not significantly inhibit	> 50	> 50	did not significantly inhibit	above 25 μM	significantly stimulated	> 20	> 50									
CCN(CCO)CCCC(C)Nc1ccnc2cc(Cl)ccc12 (stereo not drawn) [hydroxychloroquine]	practically no effect	> 50	> 50	practically no effect		practically no effect		> 50	practically no effect	> 50	> 50	practically no effect					
NC(=O)c1nc(F)c[nH]c1=O [favipiravir]	did not significantly inhibit			did not significantly inhibit		practically no effect			practically no effect				> 50	> 50	> 50	> 50	> 50

Source: PMC7827085 (Pharmaceutics, 2021)
